Source: patent publication US20160089379A1, “TREATMENT OF NEUROLOGICAL AND OTHER DISORDERS” (PALMAYA PTY LTD, priority 2013, published 2016)
Converted amounts (≈) assume the structure as drawn. Where two headings read alike, the source gives them in different places.

Tests used:
patients [1] = experiment: Naltrexone therapy in approximately 6,000 patients; format: in vivo, human
Method: Our experiments in approximately 6,000 patients treated with naltrexone (release rate of between 0.5 to 20 mg/day) or 1 to 100 micrograms per hour, with similar release rates of antagonists, has confirmed improvements in multiple sclerosis in our patients and also in crohn's disease which are both inflammatory conditions. […] These experiments showing blocking of dopamine is why the combination of right hand isomer of naltrexone and flumazenil in the dose range described is the ideal treatment to arrest multiple sclerosis.

[2] = system: patient suffering from Parkinson's disease; experiment: Finger tap test (one minute) and L-dopa intake in a Parkinson's disease patient; format: in vivo, human; settings: for Tapping score: flumazenil 170 micrograms per hour plus 10 mg of valium per day
Method: A study was conducted to test the theory that the loss of function of neuronal cells from hyperpolarisation in a patient suffering from Parkinson's disease could be reversed, improved or corrected. […] In addition, the patient was also given 10 mg of valium per day to facilitate the “sick cells” in the substantia niagra region of the brain stem, being able to produce their own dopamine again.
The patient was asked to perform the “finger tap test”, which is an indicator of the extent of Parkinson's disease. Briefly, the patient is asked to tap an index finger as fast as possible for one (1) minute (CNS tap test). The greater the number of taps per minute, the greater the improvement.
The following results were observed over four hours of treatment to the patient.

patients [3] = settings: intravenous or oral bolus doses as high as 20,000 micrograms; work of others; cited from earlier work
[4] = system: idiopathic hypersomnia patients; experiment: Treatment of idiopathic hypersomnia patients with flumazenil; format: in vivo, human
Text: We tested this model of disease again in two idiopathic hypersomnia patients. Both individuals had severe sleep drunkenness for over 18 months (Patient 1) and for over 13 years (Patient 2). We believe this illness to be due to the damage in the balance between an initial insult that had caused hyperpolarisation of cells which made them nonresponsive to benzodiazepine, as the prolonged presence of high levels of endogenous benzodiazepines continues long after the initial insult or disease. The homeostatic mechanisms that balance the delivery of dopamine to their cells responded to the damaged benzodiazepine receptors by maintaining the endogenous benzodiazepines at a high level in order to get some benzodiazepines to their cells. This inadequate dopamine delivered by response to valium was not occurring when we met these patients and so their cells remained unable to conduct currents and also unable to recover from their hyperpolarisation in the absence of dopamine.
[…]. Patient 2 was treated in a similar way.
This is in contrast with an existing patient treated by the Emery Research Group, who indicated a dose of approximately 2 mg per body mass unit per day would be required. For P1, with a BMI of 34 this would equate to 68 mg per day, 17 times what they were given during the infusion.
During the infusion and the two weeks prior, P1 kept a record of sleepiness and mood, upon awaking, mid-awake and pre-sleep on a scale of 0-10. For sleepiness 0 represented an unavoidable need to sleep, while 10 is feeling awake and rested. Similarly for mood, 0 represents rock bottom, while 10 was chirpy, happy and cheerful.

Solubility of flumazenil = format: physicochemical
patients [5] = system: patients
epilepsy patient = experiment: Treatment of epilepsy patient with flumazenil; format: in vivo, human; settings: 170 micrograms per hour, day following treatment
release of dopamine = settings: rats; combination of flumazenil and benzodiazepines; cited from earlier work
human adult volunteers = experiment: Infusion of flumazenil for treatment of benzodiazepine addiction; format: in vivo
[6] = release rate of between 0.5 to 20 mg/day or 1 to 100 micrograms per hour
[7] = P1, 4 day subcutaneous infusion, 4 mg per day
[8] = P1, post treatment, scale of 0-10, 10 is feeling awake and rested
[9] = P1, post treatment, scale of 0-10, 10 was chirpy, happy and cheerful
[10] = P2, before dose was doubled to 8 mg/day

O=C1CC[C@@]2(O)[C@H]3Cc4ccc(O)c5c4[C@@]2(CCN3CC2CC2)[C@H]1O5 [naltrexone]
crohn's disease (patients [1]; [6]): improvements
multiple sclerosis (patients [1]; [6]): improvements

O=C1CC[C@@]2(O)[C@H]3Cc4ccc(O)c5c4[C@@]2(CCN3CC2CC2)[C@H]1O5 (single isomer, unassigned) [L isomer of naltrexone]
dopamine effects (patients [1]; human, in vivo): reduces dopamine effects

CCOC(=O)c1ncn2c1CN(C)C(=O)c1cc(F)ccc1-2 [flumazenil]
Tapping score ([2]; 0 hours from infusion (baseline)): 40 taps per minute
Tapping score ([2]; 2 hours from infusion): 50 taps per minute
Tapping score ([2]; 3 hours from infusion): 60 taps per minute
Tapping score ([2]; 4 hours from infusion): 73 taps per minute
L-dopa medication dosage after commencing infusion treatment ([2]; reduced from 1500 mg/day within days of commencing infusion, with valium): 250 mg/day
adverse effects of bolus doses (patients [3]): anxiety attacks or fits
sleep drunkenness ([4]; 4 mg per day, within 3 days, both patients): full relief
concentration, memory and attention span [4, 7]: marked improvement
symptoms of IH reported during the infusion [4, 7]: not having experienced any sleep drunkenness, excessive day time sleepiness, heart palpitations or cold hands and feet
Stanford Sleepiness Scale (SSS) score ([4]; P1, at completion of flumazenil treatment, 6 out of a possible 8 at the time of treatment): 3
Epworth Sleepiness Scale (ESS) score ([4]; P1, at completion of flumazenil treatment, 21 of a possible 24 at the time of treatment): 4
Awaking sleepiness [4, 8]: 6.2 ± 0.8
Mid-awake sleepiness [4, 8]: 6.8 ± 0.5
Pre-sleep sleepiness [4, 8]: 5.8 ± 1.7
Awaking mood [4, 9]: 8.8 ± 0.4
Mid-awake mood [4, 9]: 8.8 ± 0.5
Pre-sleep mood [4, 9]: 8.5 ± 0.6
mental clarity of second patient (P2) [4, 10]: increase in mental clarity
tiredness and napping of second patient (P2) [4, 10]: still been very tired and napping through the day
health status of Patient 1 ([4]; flumazenil infusion at 2 mg/day by implant, within 7 days): full return to normal health
solubility (Solubility of flumazenil; pH 1.2, simulated gastric fluid): 3000 µg/mL (≈ 9.89 mM)
solubility (Solubility of flumazenil; pH 7.5, aqueous buffer, pH of 7.5): 600 µg/mL (≈ 1.98 mM)
calmness and the ability to relate to others (patients [5]; 20 to 300 microgram per hour, subcutaneous and intravenous infusions, within 3 days (5 days at the lower end)): significant improvement
extent of changes in those with depression, anxiety and fear (patients [5]; at the 20 mg/hour end of the scale): less
extent of changes in those with depression, anxiety and fear (patients [5]; beyond 40 mg/hour): very marked
confidence in those with depression, anxiety and fear (patients [5]; during the infusion treatment): showed a confidence in themselves
depression and anxiety symptoms in patients previously diagnosed with psychosis (patients [5]; more than 20 of the 500): lifted in their depression and in their anxiety symptoms
alertness during infusion treatment (patients [5]; most of the 500): an increase in problem solving and reported a decrease in distractibility
sleep (patients [5]; nearly all of the 500, one patient reported difficulty getting to sleep): return to natural sleep
tolerance of light (light activating peti mal episodes) (epilepsy patient): able to go for a walk in the sun for an hour with no hat or sunglasses
fits (peti mal episodes) (epilepsy patient; none since (48 hour), previously at least 4-5 times each day): no fits
release of dopamine (release of dopamine): enhance the release of dopamine
relief in those who had damaged their benzodiazepine receptors (human adult volunteers; 1-8 mg of flumazenil per day, usually within hours of commencing): gained relief
symptoms treated by benzodiazepines (human adult volunteers; flumazenil infusions, within hours, maintained for up to 3 to 4 days or longer): marked improvement
safety of long term flumazenil in humans (human adult volunteers; more than 500 patients, intravenous, subcutaneous and implant delivery): safe for use in human beings
